Consider 18 compounds from patent US9062032B2, “Aminoalkyl-substituted N-thienylbenzamide derivative” (ASTELLAS PHARMA INC., priority 2011, dated 2015).

In test [1] the test system is phosphate absorption from the intestinal tract. In words: Action of inhibiting increase in blood radioactivity in rat orally loaded with 32P phosphate (phosphate absorption inhibitory action). The format is in vivo. The settings on record: male Wistar rats, 3 mg/kg oral, 32P phosphate load 5 min after dosing, serum radioactivity AUC0-30 min. How it is done: Action of Inhibiting Increase in Blood Radioactivity in Rat Orally Loaded with ^32P Phosphate (Phosphate Absorption Inhibitory Action)
Male Wistar rats (6- to 7-week old) were fasted for 24 hours and then used as experimental animals. The compound was suspended or dissolved with a solvent, and was used at a concentration of 0.6 mg/mL. The compound was forcibly orally administered at a dose of 3 mg/kg to the animals of a compound-administered group. Control-group animals were administered a solvent containing no compound at a dose of 5 mL/kg. After 5 minutes from administration of the compound or the solvent, a ^32P-containing phosphate solution (8.3 mM NaH2PO4) was orally administered thereto at a dose of 7.2 mL/kg. After 15 minutes and 30 minutes, the blood was taken from the orbital venous plexus and the serum was collected. Radioactivity in 0.1 mL of the serum was measured by a liquid scintillation counter. AUC0-30 min in calculated from the measured counts was considered as a phosphate absorption amount. The phosphate absorption inhibitory rate was determined from the AUC0-30 min value according to the following formula. Inhibition rate of phosphate absorption (%)=(1−phosphate absorption count of compound-administered group/phosphate absorption count of standard group)×100
Table 2 illustrates examples of the inhibition rate (Int. 2) of phosphate absorption in regard to some of the compounds of Formula (I).

In test [2] the target is T1, rat NPT-IIb (Rattus norvegicus, UniProt Q9JJ09).
T1 construct: rat NPT-IIb ORF was cloned into p3×FLAG-CMV-10 by PCR; expressed in transfected cells
T1 sequence (Q9JJ09 1-695): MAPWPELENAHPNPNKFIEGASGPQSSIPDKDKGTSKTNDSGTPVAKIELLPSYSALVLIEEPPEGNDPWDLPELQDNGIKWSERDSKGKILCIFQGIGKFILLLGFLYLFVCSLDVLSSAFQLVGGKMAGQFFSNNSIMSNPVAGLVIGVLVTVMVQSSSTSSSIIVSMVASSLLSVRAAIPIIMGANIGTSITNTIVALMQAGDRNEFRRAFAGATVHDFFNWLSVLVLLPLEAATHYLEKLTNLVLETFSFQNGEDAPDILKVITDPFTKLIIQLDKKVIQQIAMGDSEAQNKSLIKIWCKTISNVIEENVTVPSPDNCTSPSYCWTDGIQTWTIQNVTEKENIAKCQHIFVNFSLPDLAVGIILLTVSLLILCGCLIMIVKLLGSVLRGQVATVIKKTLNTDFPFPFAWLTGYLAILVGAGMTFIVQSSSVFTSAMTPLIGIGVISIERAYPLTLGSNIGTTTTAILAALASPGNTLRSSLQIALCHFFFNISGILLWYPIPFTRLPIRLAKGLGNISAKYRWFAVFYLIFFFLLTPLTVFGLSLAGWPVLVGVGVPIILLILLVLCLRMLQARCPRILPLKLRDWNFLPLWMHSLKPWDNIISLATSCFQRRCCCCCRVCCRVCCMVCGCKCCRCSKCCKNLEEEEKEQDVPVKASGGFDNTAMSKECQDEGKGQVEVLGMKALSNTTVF
In words: Inhibitory action against 33P-phosphate uptake into rat NPT-IIb expression cell. The format is cell-based. The settings on record: HEK293; compound concentration 1 μM; rat NPT-IIb stable expression 293 cells; read-out: Int. 1 (%): inhibition rate of the 33P-phosphate uptake into the rat NPT-IIb. An excerpt:
Inhibitory Action Against ^33P-Phosphate Uptake into Rat NPT-IIb Expression Cell
(1) Preparation of Rat NPT-IIb Expression Cell
A rat small intestine cDNA library was used as a template, and rat NPT-IIb ORF was cloned into p3×FLAG-CMV-10 by PCR according to the prescribed method. Thereafter, 293 cells were transfected with the cloned rat NPT-IIb expression plasmid, thereby obtaining a rat NPT-IIb stable expression cell line by using G418.
(2) Evaluation System for Inhibition of Phosphate Uptake into Rat NPT-IIb Expression Cell
The rat NPT-IIb expression cells were seeded to a 96-well plate, followed by incubation overnight. Thereafter, the culture medium was removed, the plate was washed with buffer A (137 mM N-methyl-D-glucamine, 5.4 mM KCl, 2.8 mM CaCl2, 1.2 mM MgCl2, and 10 mM HEPES (adjusted to pH 7.4 using HCl)), and then buffer B (137 mM NaCl, 5.4 mM KCl, 2.8 mM CaCl2, 1.2 mM MgCl2, 0.1 mM KH2PO4, and 10 mM HEPES (adjusted to pH 7.4 using KOH)) was added thereto. Subsequently, a compound with a concentration of 10 times the evaluation concentration was prepared by dilution with the buffer B and added thereto. After the resultant was incubated in a CO2 incubator, the buffer B supplemented 50 μCi/mL of ^33P was added thereto, and then the resultant was incubated again in a CO2 incubator. After the reaction, the buffer was removed, the plate was washed with buffer C (137 mM NaCl, 10 mM Tris/HCl, pH 7.2). Thereafter, MicroScint-20 was added thereto, and ^33P uptake was measured using TopCount. An inhibition rate was calculated by the following formula. Inhibition rate (%)=(1−(^33P uptake of well treated with chemical)/(^33P uptake of DMSO-added well))×100
Table 1 illustrates examples of the inhibition rate (Int. 1) of the ^33P-phosphate uptake into the rat NPT-IIb in some of the compounds of the present invention at a concentration of drug efficacy evaluation of 1 μM. Here, Ex represents the number of example compounds described later (the same shall apply hereinafter).

Counter-ions that a name gives are not always drawn. Bounds are passed on as bounds.

As usually defined, the inhibition is the relative decrease from the control value, in per cent. On to `CCC(CC)N(CCN(C)C(=O)CCC(=O)O)Cc1cccc(C(=O)Nc2sc3c(c2C(=O)Nc2ccc(CCc4ccc(C(=O)O)cc4)cc2)CCCC3)c1.Cl` [Example 2, 4-(2-{4-[({2-[(3-{[{2-[(3-carboxypropanoyl)(methyl)amino]ethyl}(pentan-3-yl)amino]methyl}benzoyl)amino]-4,5,6,7-tetrahydro-1-benzothiophen-3-yl}carbonyl)amino]phenyl}ethyl)benzoic acid hydrochloride], for which, in test [1], the “Int. 2 (%): inhibition rate of phosphate absorption” value (“Int. 2 (%): inhibition rate” for short) is reported as more than 60%. In addition, the inhibition at 1 µM in test [2] worked out at 87%.
Consider `CCC(CC)N(CCN(C)C(=O)OCC(=O)O)Cc1cccc(C(=O)Nc2sc3c(c2C(=O)Nc2ccc(CCc4ccc(C(=O)O)cc4)cc2)CCCC3)c1.Cl` [Example 4, 4-(2-{4-[({2-[(3-{[(2-{[(carboxymethoxy)carbonyl](methyl)amino}ethyl)(pentan-3-yl)amino]methyl}benzoyl)amino]-4,5,6,7-tetrahydro-1-benzothiophen-3-yl}carbonyl)amino]phenyl}ethyl)benzoic acid hydrochloride], for which the “Int. 2 (%): inhibition rate” value in test [1] is given as 53%. In addition, the inhibition at 1 µM in test [2] was found to be 77%.
Take `CCN(CCN(Cc1cccc(C(=O)Nc2sc3c(c2C(=O)Nc2ccc(CCc4ccc(C(=O)O)cc4)cc2)CCCC3)c1)C1CC1)C(=O)CCC(=O)O` [Example 31]: the inhibition at 1 µM in test [2] stood at 87%.
For `CN(CCN(Cc1cccc(C(=O)Nc2sc3c(c2C(=O)Nc2ccc(CCc4ccc(C(=O)O)cc4)cc2)CCCC3)c1)C1CC1)C(=O)CCC(=O)O` [Example 37], in test [2], the inhibition at 1 µM is 77%.
Still for that read-out and setting: next, `CC(C)N(CCN(C)C(=O)CCC(=O)O)Cc1cccc(C(=O)Nc2sc3c(c2C(=O)Nc2ccc(CCc4ccc(C(=O)O)cc4)cc2)CCCC3)c1` [Example 38]: 61%; `CCC(CC)N(CCN(C)C(=O)CCC(=O)O)Cc1cccc(C(=O)Nc2sc(C3CCCCC3)cc2C(=O)Nc2ccc(CCc3ccc(C(=O)O)cc3)cc2)c1` [Example 41]: 73%; `CCC(CC)N(CCN(C)C(=O)CCC(=O)O)Cc1cccc(C(=O)Nc2sc3c(c2C(=O)Nc2ccc(CCc4ccc(C(=O)O)cc4)cc2)CCCCCC3)c1` [Example 43]: 65%.
The same measure, in the same setting: next, `CCC(CC)N(CCN(C)C(=O)CCC(=O)O)Cc1cccc(C(=O)Nc2sc3c(c2C(=O)Nc2ccc(CCCc4ccc(C(=O)O)cc4)cc2)CCCC3)c1` [Example 53]: 85%.
Take `CCC(CC)N(CCN(CCOC)C(=O)CCC(=O)O)Cc1cccc(C(=O)Nc2sc3c(c2C(=O)Nc2ccc(CCc4ccc(C(=O)O)cc4)cc2)CCCC3)c1.Cl` [Example 60]: the “Int. 2 (%): inhibition rate” value in test [1] turned out to be 56%. For the same compound, the inhibition at 1 µM in test [2] was found to be 86%.
In the case of `CCC(CC)N(CCCN(C)C(=O)CCC(=O)O)Cc1cccc(C(=O)Nc2sc3c(c2C(=O)Nc2ccc(CCc4ccc(C(=O)O)cc4)cc2)CCCC3)c1.Cl` [Example 66], the “Int. 2 (%): inhibition rate” value in test [1] amounted to 59%. Moreover, the inhibition at 1 µM in test [2] is 76%.
Regarding `CCC(CC)N(CCN(C)C(=O)CCC(C)(C)C(=O)O)Cc1cccc(C(=O)Nc2sc3c(c2C(=O)Nc2ccc(CCc4ccc(C(=O)O)cc4)cc2)CCCC3)c1` [Example 67, 4-(2-{4-[({2-[(3-{[{2-[(4-carboxy-4-methylpentanoyl)(methyl)amino]ethyl}(pentan-3-yl)amino]methyl}benzoyl)amino]-4,5,6,7-tetrahydro-1-benzothiophen-3-yl}carbonyl)amino]phenyl}ethyl)benzoic acid hydrochloride], in test [2], the inhibition at 1 µM was 89%.
Regarding `CC(C)[C@@H](C)N(CCN(C)C(=O)CCC(=O)O)Cc1cccc(C(=O)Nc2sc3c(c2C(=O)Nc2ccc(CCc4ccc(C(=O)O)cc4)cc2)CCCC3)c1` [Example 70], in test [2], the inhibition at 1 µM amounted to 60%.
The same measure, in the same setting: next, `CCC(CC)N(CCc1cccc(C(=O)Nc2sc3c(c2C(=O)Nc2ccc(CCc4ccc(C(=O)O)cc4)cc2)CCCC3)c1)CCN(C)C(=O)CCC(=O)O` [Example 79]: 75%.
On the same count and under the same terms, next, `CCC(CC)N(CCN(C)C(=O)CCC(=O)O)Cc1cccc(C(=O)Nc2sc3c(c2C(=O)Nc2ccc(CCc4ccc(C(=O)O)cc4)nc2)CCCC3)c1` [Example 96]: 70%.
With `CCC(CC)N(CCN(C)C(=O)CCC(=O)O)Cc1cc(C(=O)Nc2sc3c(c2C(=O)Nc2ccc(CCc4ccc(C(=O)O)cc4)cc2)CCCC3)ccn1` [Example 99], the inhibition at 1 µM in test [2] turned out to be 71%.
For the compound `CCC(CC)N(Cc1cccc(C(=O)Nc2sc3c(c2C(=O)Nc2ccc(CCc4ccc(C(=O)O)cc4)cc2)CCCC3)c1)C(=O)CCC(C)(C)C(=O)O` [Example 109, 4-(2-{4-[({2-[(3-{[(4-carboxy-4-methylpentanoyl)(pentan-3-yl)amino]methyl}benzoyl)amino]-4,5,6,7-tetrahydro-1-benzothiophen-3-yl}carbonyl)amino]phenyl}ethyl)benzoic acid], the inhibition at 1 µM in test [2] stood at 86%.
`CCC(CC)N(Cc1cccc(C(=O)Nc2sc3c(c2C(=O)Nc2ccc(CCc4ccc(C(=O)O)cc4)cc2)CCCC3)c1)C(=O)CC(C)(C)CC(=O)O` [Example 121, 4-(2-{4-[({2-[(3-{[(4-carboxy-3,3-dimethylbutanoyl)(pentan-3-yl)amino]methyl}benzoyl)amino]-4,5,6,7-tetrahydro-1-benzothiophen-3-yl}carbonyl)amino]phenyl}ethyl)benzoic acid]: the inhibition at 1 µM in test [2] is 79%.
In the case of `CC(C)N(Cc1cccc(C(=O)Nc2sc3c(c2C(=O)Nc2ccc(CCc4ccc(C(=O)O)cc4)cc2)CCCC3)c1)[C@H]1CC[C@H](C(=O)O)CC1` [Example 172], the inhibition at 1 µM in test [2] worked out at 48%.
